Laboratory results: US5840732A, “Imidazopyridine or imidazopyrimidine compounds, their production and use” (Takeda Chemical Industries Ltd., priority 1994, dated 1998)
pIC50: −log10 of the molar value.

How the values were obtained:
[1] = system: ELAM-1 expression in human umbilical cord vascular endothelial cells; assay: Inhibitory activity of adhesion molecule expression (ELAM-1, cell-ELISA); format: cell-based; conditions: TNFα 1 ng/ml, 37° C., 3 hours
Method: (§1) Inhibitory activity of adhesion molecule expression
(§2) Test method: To human umbilical cord vascular endothelial cells (purchased from Kurabo), cultured on gelatin-coated plates, compounds at various concentrations (test compounds) were added, followed by incubation at 37° C. for 15 minutes. Human tumor necrosis factor (TNFα, purchased from Genzyme) was then added to a final concentration of 1 ng/ml, followed by incubation at 37° C. for 3 hours for ELAM-1 expression or for 5 hours for ICAM-1 expression. After the reaction, cells were fixed with glutaraldehyde; the amounts of ELAM-1 and ICAM-1 expressed were determined by cell-ELISA. Anti-ELAM-1 antibody BBA-2 and an anti-ICAM-1 antibody BBA-4 were used as the first antibodies for the defection of ELAM-1 and ICAM-1, respectively, and horse radish peroxidase-labeled rabbit anti-mouse IgG antibody was used as the second antibody to determine the amount of adhesion molecules expressed on cells observed. The compound concentration at which 50% expression was expressed as the 50% inhibitory concentration (IC50), with the amount of expression in the absence of compounds as 100 and the amount of expression in the absence of TNFα as 0.

[2] = system: ICAM-1 expression in human umbilical cord vascular endothelial cells; assay: Inhibitory activity of adhesion molecule expression (ICAM-1, cell-ELISA); format: cell-based; conditions: TNFα 1 ng/ml, 37° C., 5 hours
Method: as §1, §2

pIC50 [1] | pIC50 [2] | SMILES
5.29 | 5.21 | CCCC=C1SC(=O)N(CCc2cccc3nccn23)C1=O [compound 14]
5.46 | 5.21 | CCCCCC=C1OC(=O)N(CCCCOc2cccn3ccnc23)C1=O [compound 75]
5.68 | 5.43 | O=c1c(-c2ccccc2)c2n(c(=O)n1CCCCSc1cccc3nccn13)CCS2(=O)=O [compound 36]
5.04 | 5.05 | CCCCCCCC=C1SC(=O)N(CCCCSc2cccc3nccn23)C1=O [compound 60]
5.28 | 5.46 | CCCC=C1SC(=O)N(CCSc2cccc3nccn23)C1=O [compound 5]
5.40 | 5.21 | CCCCC=C1SC(=O)N(CCCCOc2cccn3ccnc23)C1=O [compound 69]
5.40 | 5.10 | CCCC=C1SC(=O)N(CCCCSc2nccc3nccn23)C1=O [compound 25]
6.00 | 5.82 | CC(C)c1c2n(c(=O)n(CCCCSc3cccc4nccn34)c1=O)CCCS2(=O)=O [compound 42]
5.21 | 5.23 | O=C(CCCSc1cccc2nccn12)NCCCn1c(=O)c(-c2ccccc2)c2n(c1=O)CCCS2(=O)=O [compound 79]
5.34 | 5.28 | CCCCCCCC=C1SC(=O)N(CCCCOc2cccn3ccnc23)C1=O [compound 71]
5.55 | 5.20 | O=C1OC(=CCCc2ccccc2)C(=O)N1CCCCSc1cccc2nccn12 [compound 33]
5.48 | 5.62 | O=C1SC(=CCCc2cccnc2)C(=O)N1CCCCOc1cccn2ccnc12 [compound 39]
5.72 | 5.54 | CC=C1SC(=O)N(CCCCSc2cccc3nccn23)C1=O [compound 11]
5.21 | 5.37 | COc1ccccc1CCC=C1SC(=O)N(CCCCSc2cccc3nccn23)C1=O [compound 81]
5.66 | 5.46 | O=c1cc2n(c(=O)n1CCCCSc1cccc3nccn13)CCCS2(=O)=O [compound 43]
5.55 | 5.17 | O=c1c(-c2ccccc2)c2n(c(=O)n1CCCCSc1cccc3nccn13)CCC[S+]2[O-] (stereo not drawn) [compound 51]
5.64 | 5.62 | CCC=C1SC(=O)N(CCCCSc2cccc3nccn23)C1=O [compound 10]
5.49 | 5.24 | O=C1OC(=CCCc2ccccc2)C(=O)N1CCCCOc1cccn2ccnc12 [compound 32]
5.29 | 5.20 | CCCC=C1SC(=O)N(CSc2cccc3nccn23)C1=O [compound 13]
5.30 | 5.19 | CCCC=C1SC(=O)N(CCCCOc2cccn3cc(C(=O)OCC)nc23)C1=O [compound 27]
5.17 | 5.15 | CCC/C=C1\OC(=O)N(CCCCOc2cccn3c(C(=O)C(F)(F)F)cnc23)C1=O [compound 76]
5.39 | 5.44 | O=C1SC(=CCCc2ccccc2Cl)C(=O)N1CCCCSc1cccc2nccn12 [compound 84]
5.34 | 5.19 | CCCC=C1SC(=O)N(CCCCOc2cccn3cc(C)nc23)C1=O [compound 48]
5.21 | 5.15 | CCCC=C1SC(=O)N(Cc2cccc3nccn23)C1=O [compound 15]
5.39 | 5.43 | CCCC=C1SC(=O)N(CCCCOc2cccn3cc(-c4ccccc4)nc23)C1=O [compound 26]
5.52 | 5.38 | CCCC=C1SC(=O)N(CCCOc2cccn3ccnc23)C1=O [compound 47]
5.48 | 5.40 | O=C1SC(=CCCCc2ccccc2)C(=O)N1CCCCSc1cccc2nccn12 [compound 21]
5.96 | 5.74 | Cc1c2n(c(=O)n(CCCCSc3cccc4nccn34)c1=O)CCCS2(=O)=O [compound 40]
5.43 | 5.42 | O=C1SC(=CCCc2ccccc2F)C(=O)N1CCCCSc1cccc2nccn12 [compound 83]
5.47 | 5.43 | O=C1SC(=CCCc2cccnc2)C(=O)N1CCCCSc1cccc2nccn12 [compound 38]
